Laboratory results published in patent US20250345512A1, “COMBINATION SODIUM-GLUCOSE COTRANSPORTER INHIBITOR (SGLTI) INSULIN THERAPY FOR GLYCEMIC CONTROL IN TYPE 1 DIABETES” (University of Virginia Patent Foundation, priority 2022, published 2025).

System: participants with T1D
Design: species or system human
Conditions: in vivo
Experimental: FIG. 2 presents a study analysis relative to baseline, control IQ (CIQ) (e.g., AID), and basal IQ (BIQ) (e.g., PLGS) implementation, according to investigation that is demonstrable of one or more embodiments herein. Therein, an experimental arm (G1, G2) providing an initial daily dose of 5 mg empagliflozin (EMPA) is depicted against a control arm (G3, G4) without such dosing (NOEMPA). Relative characteristics of the analysis are provided below.
Study Design: A single-center, randomized, controlled, unblinded, crossover clinical trial (NCT04201496) compared four parallel groups, two groups in the experimental arm (EMPA) with 5 mg daily empagliflozin as adjunctive therapy to PLGS or AID, and two groups in the control arm (NOEMPA) with no drug and with a PLGS system (Basal-IQ, Tandem Diabetes Care) or AID system (Control-IQ, Tandem Diabetes Care). […] A tolerance to the medication was assessed prior to the starting of the next study phase, including adherence to the protocol, ketone testing 2-4 times per day with monitored values not greater than 0.6 mmol/L on at least two successive occasions (the first testing upon waking in a fasted state), no adverse events relating to perineal infection or symptomatic postural hypotension, and no evidence of significant hypoglycemia <54 mg/dL, or any other listed adverse effects of the medication. […]

## OC[C@H]1O[C@@H](c2ccc(Cl)c(Cc3ccc(O[C@H]4CCOC4)cc3)c2)[C@H](O)[C@@H](O)[C@@H]1O [CIQ-EMPA, empagliflozin]
  Difference (95% CI): Ketones: 0.02 mmol/L
